Consider 26 compounds from PubChem BioAssay AID330 (DTP/NCI, 2004).

The subject of the test is P388 leukemia ip, CD2F1 mice, survival T/C. In words: NCI In Vivo Anticancer Drug Screen. Data for tumor model P388 Leukemia (intraperitoneal) in CD2F1 (CDF1) mice. Conditions: endpoint: median survival time, higher = longer survival. In a few lines: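 Mice carrying the transplanted tumor received test compound or vehicle. Survival was recorded in each group, and the value is the treated-group measurement divided by that of the vehicle-treated control group.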

Setting [1] is: dose: 50.0 mg/kg/injection, schedule: Q01DX009 (ip), vehicle: saline.
Where [2] appears, read: dose: 100.0 mg/kg/injection, schedule: Q01DX009 (ip), vehicle: saline.
The mark [3] stands for this setting: dose: 200.0 mg/kg/injection, schedule: Q01DX009 (ip), vehicle: saline.
Setting [4] is: dose: 60.0 mg/kg/injection, schedule: Q01DX005 (ip), vehicle: saline with Tween-80.
The mark [5] stands for this setting: dose: 120.0 mg/kg/injection, schedule: Q01DX005 (ip), vehicle: saline with Tween-80.
The mark [6] stands for this setting: dose: 240.0 mg/kg/injection, schedule: Q01DX005 (ip), vehicle: saline with Tween-80.
[7] abbreviates: dose: 50.0 mg/kg/injection, schedule: Q01DX009 (ip), vehicle: Klucel (hydroxypropylcellulose) (HPC).
Setting [8] is: dose: 100.0 mg/kg/injection, schedule: Q01DX009 (ip), vehicle: Klucel (hydroxypropylcellulose) (HPC).
The mark [9] stands for this setting: dose: 50.0 mg/kg/injection, schedule: Q01DX005 (ip), vehicle: Klucel (hydroxypropylcellulose) (HPC).
The mark [10] stands for this setting: dose: 100.0 mg/kg/injection, schedule: Q01DX005 (ip), vehicle: Klucel (hydroxypropylcellulose) (HPC).
Where [11] appears, read: dose: 200.0 mg/kg/injection, schedule: Q01DX005 (ip), vehicle: Klucel (hydroxypropylcellulose) (HPC).
Setting [12] is: dose: 200.0 mg/kg/injection, schedule: Q01DX009 (ip), vehicle: Klucel (hydroxypropylcellulose) (HPC).
The mark [13] stands for this setting: dose: 100.0 mg/kg/injection, schedule: Q01DX009 (ip), vehicle: saline with Tween-80.
[14] abbreviates: dose: 200.0 mg/kg/injection, schedule: Q01DX009 (ip), vehicle: saline with Tween-80.
Setting [15] is: dose: 50.0 mg/kg/injection, schedule: Q01DX009 (ip), vehicle: saline with Tween-80.
Setting [16] is: dose: 60.0 mg/kg/injection, schedule: Q01DX005 (ip), vehicle: Klucel (hydroxypropylcellulose) (HPC).
Setting [17] is: dose: 240.0 mg/kg/injection, schedule: Q01DX005 (ip), vehicle: Klucel (hydroxypropylcellulose) (HPC).
Setting [18] is: dose: 50.0 mg/kg/injection, schedule: Q01DX005 (ip), vehicle: saline with Tween-80.
Where [19] appears, read: dose: 100.0 mg/kg/injection, schedule: Q01DX005 (ip), vehicle: saline with Tween-80.

Where “and” joins values, the source holds several entries; their conditions need not be identical. Equal values may be shown once. Inconclusive results and toxic doses are left out.

Regarding `CCCCC(NC(=O)CCl)C(=O)O` (stereo not given), the T/C under setting [1] is 98 % of control, the T/C under setting [2] was 95 % of control and the T/C under setting [3] was 98 % of control.

Take `COc1cccc2c1C(=O)c1c(O)c3c(c(O)c1C2=O)CC(O)(/C(C)=N/NC(=O)CC(=O)N/N=C(\C)C1(O)Cc2c(O)c4c(c(O)c2C(OC2CC(N)C(O)C(C)O2)C1)C(=O)c1c(OC)cccc1C4=O)CC3OC1CC(N)C(O)C(C)O1` (stereo not given): the T/C is, setting by setting: (dose: 3.13 mg/kg/injection, schedule: Q01DX009 (ip), vehicle: water) 153 % of control; (dose: 3.13 mg/kg/injection, schedule: Q04DX003 (ip), vehicle: water) 101 % of control; (dose: 6.25 mg/kg/injection, schedule: Q01DX009 (ip), vehicle: water) 169 % of control; (dose: 6.25 mg/kg/injection, schedule: Q04DX003 (ip), vehicle: water) 110 % of control; (dose: 12.5 mg/kg/injection, schedule: Q04DX003 (ip), vehicle: water) 112 % of control.

Regarding `COc1ccc2c(=O)c(Cc3c(-c4ccccc4)[nH]c4ccccc34)coc2c1`, the T/C was 98 % of control under setting [4], 91 % of control under setting [5] and 90 % of control under setting [6].

For `FC(F)(F)c1ccccc1N=Cc1ccc(C=Nc2ccccc2C(F)(F)F)cc1`, the T/C reads like this: under setting [7], 98 % of control; under setting [8], 91 % of control.

With `CCN(CC)c1ccc(CCc2ccc(N(CC)CC)c3cccnc23)c2ncccc12`, the T/C is, setting by setting: under setting [9], 99 % of control; under setting [10], 112 % of control; under setting [11], 94 % of control.

Take `CC(=O)NN1C(=O)Cc2ccccc2C1C(N)=O` (stereo not given): the T/C runs as follows: under setting [7], 103 % of control; under setting [8], 111 % of control; under setting [12], 103 % of control.

As to `Cc1ccc(NC(=O)c2ccc([N+](=O)[O-])cc2)c(C)c1`, the T/C reads like this: under setting [13], 100 % of control; under setting [14], 100 % of control; (dose: 400.0 mg/kg/injection, schedule: Q01DX009 (ip), vehicle: saline with Tween-80) 110 % of control.

Turning to `COc1cc2c(ccc3cc4cccc[n+]4cc32)c(Br)c1OC`, the T/C was 104 % of control (dose: 12.5 mg/kg/injection, schedule: Q01DX009 (ip), vehicle: saline sonified); 118 % of control (dose: 25.0 mg/kg/injection, schedule: Q01DX009 (ip), vehicle: saline sonified); 113 % of control (dose: 50.0 mg/kg/injection, schedule: Q01DX009 (ip), vehicle: saline sonified).

Turning to `Oc1c(Cl)cc(Cl)cc1CN1CCOCC1`, the T/C by setting is: (dose: 50.0 mg/kg/injection, schedule: Q01DX009 (ip), vehicle: suspension in saline) 89 % of control; (dose: 100.0 mg/kg/injection, schedule: Q01DX009 (ip), vehicle: suspension in saline) 87 % of control; (dose: 200.0 mg/kg/injection, schedule: Q01DX009 (ip), vehicle: suspension in saline) 98 % of control; (dose: 400.0 mg/kg/injection, schedule: Q01DX009 (ip), vehicle: suspension in saline) 109 % of control.

With `c1cc2c3c(cccc3c1)NC(c1ccc3c(c1)OCO3)N2`, the T/C was 100 % of control under setting [9], 100 % of control under setting [10] and 95 % of control under setting [11].

For `CCOc1cc2c(Cl)ncnc2c(OCC)c1OCC`, the T/C runs as follows: under setting [15], 105 % of control; under setting [13], 91 % of control; under setting [14], 106 % of control.

For the compound `COc1ccc(C2c3cc4c(cc3OC(C)(O)C2C)OCO4)c(OC)c1` (stereo not given), the T/C runs as follows: under setting [16], 98 % of control; (dose: 120.0 mg/kg/injection, schedule: Q01DX005 (ip), vehicle: Klucel (hydroxypropylcellulose) (HPC)) 97 % of control; under setting [17], 100 % of control.

Regarding `O=C(O)C(Cc1cn(Cc2ccccc2)cn1)NCc1ccccc1` (stereo not given), the T/C under setting [9] was 92 % of control, the T/C under setting [10] is 104 % of control and the T/C under setting [11] was 95 % of control.

Take `Cc1ccc(S(=O)(=O)NC(=O)C2C(=O)CC3(CCCCC3)CC2=O)cc1`: the T/C is 117 % of control under setting [7], 123 % of control under setting [8] and 124 % of control under setting [12].

Turning to `CC(C)(C)/[N+]([O-])=C/C1(C2(/C=[N+](\[O-])C(C)(C)C)Cc3ccccc3C2=O)Cc2ccccc2C1=O` (stereo not given), the T/C is 101 % of control under setting [4], 105 % of control under setting [5] and 103 % of control under setting [6].

Turning to `C=CS(=O)(=O)c1ccc(C)cc1`, the T/C reads like this: (dose: 1.56 mg/kg/injection, schedule: Q01DX009 (ip), vehicle: Klucel (hydroxypropylcellulose) (HPC)) 104 % of control; (dose: 3.13 mg/kg/injection, schedule: Q01DX009 (ip), vehicle: Klucel (hydroxypropylcellulose) (HPC)) 99 % of control and 105 % of control; (dose: 6.25 mg/kg/injection, schedule: Q01DX009 (ip), vehicle: Klucel (hydroxypropylcellulose) (HPC)) 121 % of control and 95 % of control; (dose: 12.5 mg/kg/injection, schedule: Q01DX009 (ip), vehicle: Klucel (hydroxypropylcellulose) (HPC)) 99 % of control and 111 % of control.

Turning to `O=C1NC(=O)C2C3C=CC(C12)C1C2CCOC2C31` (stereo not given), the T/C is 104 % of control under setting [18]; 100 % of control under setting [19]; 99 % of control (dose: 200.0 mg/kg/injection, schedule: Q01DX005 (ip), vehicle: saline with Tween-80).

With `N#C/C(C(N)=O)=C(\C(=O)c1ccccc1)c1ccccc1`, the T/C runs as follows: under setting [18], 99 % of control; under setting [19], 96 % of control.

With `O=C(c1ccccc1)C(NCc1ccccc1)(Nc1ccccn1)c1ccccc1` (stereo not given), the T/C (dose: 15.0 mg/kg/injection, schedule: Q01DX005 (ip), vehicle: Klucel (hydroxypropylcellulose) (HPC)) is 102 % of control; the T/C (dose: 30.0 mg/kg/injection, schedule: Q01DX005 (ip), vehicle: Klucel (hydroxypropylcellulose) (HPC)) was 100 % of control; the T/C under setting [16] was 100 % of control and 88 % of control; the T/C under setting [17] is 89 % of control.

`CC1(C)NN=C(SCc2ccccc2)NC1=O`: the T/C is, setting by setting: (dose: 100.0 mg/kg/injection, schedule: Q04DX003 (ip), vehicle: Klucel (hydroxypropylcellulose) (HPC)) 98 % of control; (dose: 200.0 mg/kg/injection, schedule: Q04DX003 (ip), vehicle: Klucel (hydroxypropylcellulose) (HPC)) 100 % of control; (dose: 400.0 mg/kg/injection, schedule: Q04DX003 (ip), vehicle: Klucel (hydroxypropylcellulose) (HPC)) 92 % of control.

In the case of `Cc1ccc(SSC(=S)Nc2ccccc2)cc1`, the T/C was 93 % of control (dose: 12.5 mg/kg/injection, schedule: Q01DX009 (ip), vehicle: saline with Tween-80); 90 % of control (dose: 25.0 mg/kg/injection, schedule: Q01DX009 (ip), vehicle: saline with Tween-80); 100 % of control and 114 % of control under setting [15]; 114 % of control under setting [13].

For `COc1ccc2c(c1)CCc1c(N)ncnc1-2`, the T/C (dose: 100.0 mg/kg/injection, schedule: Q04DX002 (ip), vehicle: saline with Tween-80) is 104 % of control; the T/C (dose: 200.0 mg/kg/injection, schedule: Q04DX002 (ip), vehicle: saline with Tween-80) is 106 % of control; the T/C (dose: 400.0 mg/kg/injection, schedule: Q04DX002 (ip), vehicle: saline with Tween-80) is 107 % of control.

As for `[Cl][Cu][Cl]`, the T/C is 90 % of control (dose: 3.13 mg/kg/injection, schedule: Q04DX003 (ip), vehicle: saline) and 104 % of control (dose: 6.25 mg/kg/injection, schedule: Q04DX003 (ip), vehicle: saline).

With `C[C@]12CC[C@H]([C@@]3(C)CC[C@H]4CC[C@]43O)[C@@H](CO)[C@@H]1CC[C@@H]2O`, the T/C reads like this: under setting [4], 104 % of control; under setting [5], 98 % of control; under setting [6], 91 % of control.

For `C/C=C(/C(=O)O)S(=O)(=O)O.[Ag]`, the T/C (dose: 20.0 mg/kg/injection, schedule: Q01DX009 (ip), vehicle: saline with Tween-80) is 103 % of control.

Regarding `O=Cc1ccc2c(c1)OCCOCCOCCOCCO2`, the T/C was 100 % of control and 97 % of control (dose: 25.0 mg/kg/injection, schedule: Q01DX009 (ip), vehicle: saline); 99 % of control and 111 % of control under setting [1]; 105 % of control and 94 % of control under setting [2]; 102 % of control and 92 % of control under setting [3].
